Experimental data taken from US20120041068A1, “Extended Release Pharmaceutical Preparations for Active Pharmaceutical Ingredients with pH Dependent Solubility” (Aptapharma, Inc., priority 2010, published 2012).
Where a name gives a salt, the structure may show the parent alone.

Test: Effect of crystallization inhibitor on guanfacine HCl solubility (clear vs precipitate on storage)
Assay type: physicochemical
Conditions: in the presence of polyvinyl pyrrolidone vs comparison formulation without polyvinyl pyrrolidone
Text: As crystallization inhibitors, highly dispersed silicon dioxide or macromolecular substances are suitable.

tendency toward crystal formation: less tendency toward crystal formation
SMILES: N=C(N)NC(=O)Cc1c(Cl)cccc1Cl [guanfacine, guanfacine hydrochloride]
